According to ChEMBL document CHEMBL1132087, “New N-substituted 7-aminocephalosporanic acid derivatives as potential agents against Streptococcus pneumoniae. Synthesis and in vitro activity” (1999):
Values after ≈ are worked out from the molar mass of the structure shown.

Key:
Assay type in all cases: functional
Staphylococcus aureus [1] = test: In vitro antibacterial activity against the gram-positive bacteria, penicillin sensitive Staphylococcus aureus (663E)
Staphylococcus aureus [2] = test: In vitro antibacterial activity against the gram-positive bacteria, penicillin resistant Staphylococcus aureus (2619)
Staphylococcus aureus [3] = test: In vitro antibacterial activity against the gram-positive bacteria, penicillin resistant Staphylococcus aureus (853)
Streptococcus pneumoniae [4] = test: In vitro antibacterial activity against the gram-positive bacteria, penicillin resistant Streptococcus pneumoniae (4635)
Streptococcus pneumoniae [5] = test: In vitro antibacterial activity against the gram-positive bacteria, penicillin sensitive Streptococcus pneumoniae (3512)
Streptococcus pneumoniae [6] = test: In vitro antibacterial activity against the gram-positive bacteria, penicillin sensitive Streptococcus pneumoniae (3273)
Streptococcus pneumoniae [7] = test: In vitro antibacterial activity against the gram-positive bacteria, penicillin sensitive Streptococcus pneumoniae (3272)
Streptococcus pneumoniae [8] = test: In vitro antibacterial activity against the gram-positive bacteria, penicillin resistant Streptococcus pneumoniae (4630)
Staphylococcus aureus [9] = test: In vitro antibacterial activity against the gram-positive bacteria, penicillin resistant Staphylococcus aureus (2672)
Staphylococcus aureus [10] = test: In vitro antibacterial activity against the gram-positive bacteria, penicillin sensitive Staphylococcus aureus (3849)
Streptococcus pneumoniae [11] = test: In vitro antibacterial activity against the gram-positive bacteria, penicillin resistant Streptococcus pneumoniae (4629)
Streptococcus pneumoniae [12] = test: In vitro antibacterial activity against the gram-positive bacteria, penicillin resistant Streptococcus pneumoniae (4636)
Staphylococcus aureus [13] = test: In vitro antibacterial activity against the gram-positive bacteria, penicillin sensitive Staphylococcus aureus (3072)
Streptococcus pyogenes = test: In vitro antibacterial activity against the gram-positive bacteria, erythromycin resistant Streptococcus pyogenes

SMILES | MIC (Staphylococcus aureus [1]) [µg/mL] | MIC (Staphylococcus aureus [2]) [µg/mL] | MIC (Staphylococcus aureus [3]) [µg/mL] | MIC (Streptococcus pneumoniae [4]) [µg/mL] | MIC (Streptococcus pneumoniae [5]) [µg/mL] | MIC (Streptococcus pneumoniae [6]) [µg/mL] | MIC (Streptococcus pneumoniae [7]) [µg/mL] | MIC (Streptococcus pneumoniae [8]) [µg/mL] | MIC (Staphylococcus aureus [9]) [µg/mL] | MIC (Staphylococcus aureus [10]) [µg/mL] | MIC (Streptococcus pneumoniae [11]) [µg/mL] | MIC (Streptococcus pneumoniae [12]) [µg/mL] | MIC (Staphylococcus aureus [13]) [µg/mL] | MIC (Streptococcus pyogenes) [µg/mL]
CC(=O)OCC1=C(C(=O)O)N2C(=O)[C@@H](NC(=O)CN(OCc3ccc(Cl)cc3)C(=O)c3ccccc3)C2SC1 (stereo partly specified) | 0.5 (≈ 0.871 µM) | 2 (≈ 3.48 µM) | 2 (≈ 3.48 µM) | 8 (≈ 13.9 µM) | 0.12 (≈ 0.209 µM) | 0.12 (≈ 0.209 µM) | 0.12 (≈ 0.209 µM) | 8 (≈ 13.9 µM) | 8 (≈ 13.9 µM) | 1 (≈ 1.74 µM) | 8 (≈ 13.9 µM) | 16 (≈ 27.9 µM) | 0.5 (≈ 0.871 µM) | 0.12 (≈ 0.209 µM)
CO/N=C(\C(=O)N[C@@H]1C(=O)N2C(C(=O)O)=C(CSc3nc(=O)c(O)nn3C)CS[C@H]12)c1csc(N)n1 [CEFTRIAXONE] | 2 (≈ 3.61 µM) | 4 (≈ 7.21 µM) | 4 (≈ 7.21 µM) | 1 (≈ 1.8 µM) | 0.03 (≈ 0.0541 µM) | 0.03 (≈ 0.0541 µM) | 0.03 (≈ 0.0541 µM) | 2 (≈ 3.61 µM) | 4 (≈ 7.21 µM) | 2 (≈ 3.61 µM) | 4 (≈ 7.21 µM) | 1 (≈ 1.8 µM) | 4 (≈ 7.21 µM) | 0.06 (≈ 0.108 µM)
CC(=O)OCC1=C(C(=O)O)N2C(=O)[C@@H](NC(=O)CN(OCc3ccccc3)C(=O)NCc3ccccc3)C2SC1 (stereo partly specified) | 0.5 (≈ 0.879 µM) | 1 (≈ 1.76 µM) | 1 (≈ 1.76 µM) | 4 (≈ 7.03 µM) | 0.25 (≈ 0.44 µM) | 0.5 (≈ 0.879 µM) | 0.12 (≈ 0.211 µM) | 16 (≈ 28.1 µM) | 2 (≈ 3.52 µM) | 1 (≈ 1.76 µM) | 16 (≈ 28.1 µM) | 32 (≈ 56.3 µM) | 1 (≈ 1.76 µM) | 0.25 (≈ 0.44 µM)
CC(=O)OCC1=C(C(=O)O)N2C(=O)[C@@H](NC(=O)CN(OCc3cccc(Cl)c3)C(=O)NCc3ccccc3)C2SC1 (stereo partly specified) | 1 (≈ 1.66 µM) | 2 (≈ 3.32 µM) | 1 (≈ 1.66 µM) | 4 (≈ 6.63 µM) | 0.25 (≈ 0.415 µM) | 0.5 (≈ 0.829 µM) | 0.25 (≈ 0.415 µM) | 8 (≈ 13.3 µM) | 2 (≈ 3.32 µM) | 0.5 (≈ 0.829 µM) | 8 (≈ 13.3 µM) | 32 (≈ 53.1 µM) | 1 (≈ 1.66 µM) | 0.25 (≈ 0.415 µM)
CC(=O)OCC1=C(C(=O)O)N2C(=O)[C@@H](NC(=O)CN(OCc3cccc(Cl)c3)C(=O)c3ccccc3)C2SC1 (stereo partly specified) | 0.5 (≈ 0.871 µM) | 1 (≈ 1.74 µM) | 0.5 (≈ 0.871 µM) | 1 (≈ 1.74 µM) | 0.06 (≈ 0.105 µM) | 0.12 (≈ 0.209 µM) | 0.06 (≈ 0.105 µM) | 8 (≈ 13.9 µM) | 4 (≈ 6.97 µM) | 0.5 (≈ 0.871 µM) | 8 (≈ 13.9 µM) | 2 (≈ 3.48 µM) | 0.5 (≈ 0.871 µM) | 0.25 (≈ 0.436 µM)
CC(=O)OCC1=C(C(=O)O)N2C(=O)[C@@H](NC(=O)CN(OCc3ccc(Cl)cc3)C(=O)NCc3ccccc3)C2SC1 (stereo partly specified) | 0.5 (≈ 0.829 µM) | 1 (≈ 1.66 µM) | 1 (≈ 1.66 µM) | 4 (≈ 6.63 µM) | 0.25 (≈ 0.415 µM) | 0.5 (≈ 0.829 µM) | 0.25 (≈ 0.415 µM) | 8 (≈ 13.3 µM) | 2 (≈ 3.32 µM) | 0.5 (≈ 0.829 µM) | 8 (≈ 13.3 µM) | 32 (≈ 53.1 µM) | 1 (≈ 1.66 µM) | 0.12 (≈ 0.199 µM)
CC(=O)OCC1=C(C(=O)O)N2C(=O)[C@@H](NC(=O)CN(OCc3ccccc3Cl)C(=O)NCc3ccccc3)C2SC1 (stereo partly specified) | 0.5 (≈ 0.829 µM) | 1 (≈ 1.66 µM) | 1 (≈ 1.66 µM) | 4 (≈ 6.63 µM) | 0.25 (≈ 0.415 µM) | 0.5 (≈ 0.829 µM) | 0.5 (≈ 0.829 µM) | 16 (≈ 26.5 µM) | 4 (≈ 6.63 µM) | 0.5 (≈ 0.829 µM) | 16 (≈ 26.5 µM) | 64 (≈ 106 µM) | 1 (≈ 1.66 µM) | 0.25 (≈ 0.415 µM)
CC(=O)OCC1=C(C(=O)O)N2C(=O)[C@@H](NC(=O)CN(OCc3cccc(Cl)c3)C(=O)Nc3ccccc3)C2SC1 (stereo partly specified) | 0.5 (≈ 0.849 µM) | 1 (≈ 1.7 µM) | 1 (≈ 1.7 µM) | 2 (≈ 3.4 µM) | 0.12 (≈ 0.204 µM) | 0.12 (≈ 0.204 µM) | 0.06 (≈ 0.102 µM) | 4 (≈ 6.79 µM) | 2 (≈ 3.4 µM) | 0.5 (≈ 0.849 µM) | 4 (≈ 6.79 µM) | 4 (≈ 6.79 µM) | 0.5 (≈ 0.849 µM) | 0.12 (≈ 0.204 µM)
CO/N=C(\C(=O)N[C@@H]1C(=O)N2C(C(=O)O)=C(COC(N)=O)CS[C@H]12)c1ccco1 [CEFUROXIME] | 1 (≈ 2.36 µM) | 2 (≈ 4.71 µM) | 2 (≈ 4.71 µM) | 32 (≈ 75.4 µM) | 0.06 (≈ 0.141 µM) | 0.25 (≈ 0.589 µM) | 0.06 (≈ 0.141 µM) | 16 (≈ 37.7 µM) | 2 (≈ 4.71 µM) | 1 (≈ 2.36 µM) | 32 (≈ 75.4 µM) | 16 (≈ 37.7 µM) | 2 (≈ 4.71 µM) | 0.06 (≈ 0.141 µM)
CC(=O)OCC1=C(C(=O)O)N2C(=O)[C@@H](NC(=O)CN(OCc3ccccc3Cl)C(=O)Nc3ccccc3)C2SC1 (stereo partly specified) | 0.5 (≈ 0.849 µM) | 1 (≈ 1.7 µM) | 2 (≈ 3.4 µM) | 4 (≈ 6.79 µM) | 0.12 (≈ 0.204 µM) | 0.25 (≈ 0.424 µM) | 0.25 (≈ 0.424 µM) | 8 (≈ 13.6 µM) | 2 (≈ 3.4 µM) | 0.5 (≈ 0.849 µM) | 8 (≈ 13.6 µM) | 8 (≈ 13.6 µM) | 0.5 (≈ 0.849 µM) | 0.12 (≈ 0.204 µM)
CC(=O)OCC1=C(C(=O)O)N2C(=O)[C@@H](NC(=O)CN(OCc3ccc(Cl)cc3)C(=O)Nc3ccccc3)C2SC1 (stereo partly specified) | 0.5 (≈ 0.849 µM) | 1 (≈ 1.7 µM) | 1 (≈ 1.7 µM) | 4 (≈ 6.79 µM) | 0.06 (≈ 0.102 µM) | 0.25 (≈ 0.424 µM) | 0.12 (≈ 0.204 µM) | 4 (≈ 6.79 µM) | 4 (≈ 6.79 µM) | 0.5 (≈ 0.849 µM) | 8 (≈ 13.6 µM) | 16 (≈ 27.2 µM) | 0.5 (≈ 0.849 µM) | 0.06 (≈ 0.102 µM)
CC(=O)OCC1=C(C(=O)O)N2C(=O)[C@@H](NC(=O)CN(OCc3ccccc3)C(=O)c3ccccc3)C2SC1 (stereo partly specified) | 0.5 (≈ 0.927 µM) | 2 (≈ 3.71 µM) | 1 (≈ 1.85 µM) | 8 (≈ 14.8 µM) | 0.03 (≈ 0.0556 µM) | 0.06 (≈ 0.111 µM) | 0.06 (≈ 0.111 µM) | 8 (≈ 14.8 µM) | 8 (≈ 14.8 µM) | 0.5 (≈ 0.927 µM) | 8 (≈ 14.8 µM) | 16 (≈ 29.7 µM) | 1 (≈ 1.85 µM) | 0.25 (≈ 0.463 µM)
CC(=O)OCC1=C(C(=O)O)N2C(=O)[C@@H](NC(=O)CN(OCc3ccccc3Cl)C(=O)c3ccccc3)C2SC1 (stereo partly specified) | 1 (≈ 1.74 µM) | 4 (≈ 6.97 µM) | 1 (≈ 1.74 µM) | 16 (≈ 27.9 µM) | 0.25 (≈ 0.436 µM) | 0.25 (≈ 0.436 µM) | 0.25 (≈ 0.436 µM) | 16 (≈ 27.9 µM) | 8 (≈ 13.9 µM) | 0.5 (≈ 0.871 µM) | 16 (≈ 27.9 µM) | 32 (≈ 55.7 µM) | 1 (≈ 1.74 µM) | 0.5 (≈ 0.871 µM)
N[C@@H](C(=O)N[C@@H]1C(=O)N2C(C(=O)O)=C(Cl)CS[C@H]12)c1ccccc1 [CEFACLOR ANHYDROUS] | 1 (≈ 2.72 µM) | 16 (≈ 43.5 µM) | 64 (≈ 174 µM) | 16 (≈ 43.5 µM) | 1 (≈ 2.72 µM) | 0.5 (≈ 1.36 µM) | 1 (≈ 2.72 µM) | 16 (≈ 43.5 µM) | 64 (≈ 174 µM) | 1 (≈ 2.72 µM) | 32 (≈ 87 µM) | 16 (≈ 43.5 µM) | 4 (≈ 10.9 µM) | 0.5 (≈ 1.36 µM)
CC(=O)OCC1=C(C(=O)O)N2C(=O)[C@@H](NC(=O)CN(OCc3ccccc3)C(=O)Nc3ccccc3)C2SC1 (stereo partly specified) | 0.5 (≈ 0.902 µM) | 2 (≈ 3.61 µM) | 1 (≈ 1.8 µM) | 8 (≈ 14.4 µM) | 0.25 (≈ 0.451 µM) | 0.25 (≈ 0.451 µM) | 0.12 (≈ 0.216 µM) | 8 (≈ 14.4 µM) | 4 (≈ 7.21 µM) | 0.5 (≈ 0.902 µM) | 8 (≈ 14.4 µM) | 16 (≈ 28.9 µM) | 1 (≈ 1.8 µM) | 0.12 (≈ 0.216 µM)
CC1(C)S[C@@H]2[C@H](NC(=O)[C@H](N)c3ccc(O)cc3)C(=O)N2[C@H]1C(=O)O.O=C(O)[C@H]1/C(=C/CO)O[C@@H]2CC(=O)N21 | 0.25 | 2 | 2 | 4 | < 0.015 | < 0.015 | < 0.015 | 2 | 1 | 0.25 | 4 | 4 | 0.5 | 0.06
CC1(C)S[C@@H]2[C@H](NC(=O)Cc3ccccc3)C(=O)N2[C@H]1C(=O)O [PENICILLIN G] | < 0.5 | 64 (≈ 191 µM) | 64 (≈ 191 µM) | 8 (≈ 23.9 µM) | < 0.5 | 0.5 (≈ 1.5 µM) | < 0.5 | 4 (≈ 12 µM) | 64 (≈ 191 µM) | < 0.5 | 4 (≈ 12 µM) | 8 (≈ 23.9 µM) | < 0.5 | 
CO/N=C(\C(=O)N[C@@H]1C(=O)N2C(C(=O)[O-])=C(C[n+]3cccc4c3CCC4)CS[C@H]12)c1csc(N)n1 [CEFPIROME] | 1 (≈ 1.94 µM) | 2 (≈ 3.89 µM) | 2 (≈ 3.89 µM) | < 0.5 | 0.06 (≈ 0.117 µM) | 0.06 (≈ 0.117 µM) | 0.06 (≈ 0.117 µM) | 1 (≈ 1.94 µM) | 2 (≈ 3.89 µM) | 1 (≈ 1.94 µM) | 2 (≈ 3.89 µM) | < 0.5 | 1 (≈ 1.94 µM) | 0.03 (≈ 0.0583 µM)
